The values that follow come from patent US9822136B2, “Chemical inhibitors of sebocyte function” (priority 2016, dated 2017).

For series [1], the system named is sebocytes. Put plainly: IGF-1 stimulated lipogenesis in sebocytes (Oil Red O, thin-layer and gas chromatography of lipids). The class given is cell-based, human. On the procedure:
The activities of 1-7 and 1-8 on an immortalized sebocyte cell line were examined in the laboratory of Prof Im Myung using methods previously described [Im et al. Epigallocatechin-3-gallate suppresses IGF-I-induced lipogenesis and cytokine expression in SZ95 sebocytes. J. Invest. Dermatol. […] Proliferation of the sebocytes was measured using the MTT assay, by examination of micrographs of the cells in culture, and ^3H-thymidine incorporation. The effects of the test agents on lipogenesis were further studied by Oil Red O staining and analysis of the lipid composition of the cells. Studies were also conducted on signaling pathways for lipogenesis [PPAR and SREBP-1, Trivedi et al. Peroxisome proliferator-activated receptors increase human sebum production. J. Invest. Dermatol.
J. Invest. Dermatol. […] Oil Red 0 [Sudan Red 5B] is a diazo dye used for staining neutral triglycerides and lipids on cells.

In series [2] the test system is sebocytes. Briefly: Sebocyte viability, MTT assay. The class given is cell-based, human. The method, then:
(§1) The activities of 1-7 and 1-8 on an immortalized sebocyte cell line were examined in the laboratory of Prof Im Myung using methods previously described [Im et al. Epigallocatechin-3-gallate suppresses IGF-I-induced lipogenesis and cytokine expression in SZ95 sebocytes. J. Invest. Dermatol. 132, 2700-8 (2012)]. Proliferation of the sebocytes was measured using the MTT assay, by examination of micrographs of the cells in culture, and ^3H-thymidine incorporation. The effects of the test agents on lipogenesis were further studied by Oil Red O staining and analysis of the lipid composition of the cells. Studies were also conducted on signaling pathways for lipogenesis [PPAR and SREBP-1, Trivedi et al. Peroxisome proliferator-activated receptors increase human sebum production. J. Invest. Dermatol. 126, 2002-9 (2006)].
The MTT assay is a colorimetric assay for cell viability. MTT [3-(4,5-dimethylthiazol-2-yl)-2-5-diphenyltetrazolium bromide], a yellow tetra-azole dye, is reduced to purple formazan in living cells by NADPH-dependent oxidoreductase enzymes. When the number of viable cells decreases the amount of enzymatic activity and purple color decreases and this can be measured with a spectrophotometer.
(§2) 1-7 and 1-8 are sensory cooling agents on the skin and activators [agonists] of the TRPM8 ion channel protein. […] The indicators used for direct comparison were sebocyte viability measured in the MTT assay and then the ^3H-thymidine incorporation assay.
(In general: Tetrazolium dyes change colour on reduction, which living cells bring about.)

A short description of series [3]: Foaming of aqueous solution on manual shaking. The series is classed as physicochemical. Conditions: 10 mg/mL in distilled water. On the procedure: The foaming seen in 7B is characteristic of a surface active agent or “surfactant” and is caused by an amphiphilic structure.
Plain water will not make bubbles because the water molecules are more strongly attracted to each other than to air. But when a surfactant is added, the surface tension of the liquid is reduced and it can wrap itself around air to form foam or soap bubbles. The foaming is enhanced when the liquid is shaken vigorously.

For series [4], the system named is sebocytes. Put plainly: 3H-thymidine incorporation into sebocytes. The class given is cell-based, human. Conditions: Homo sapiens, 3 h; uptake into sebocytes; NS = not significant. The method, then:
as §1, §2

The next series addresses T1, cloned hTRPM8 channel (Homo sapiens, UniProt Q7Z2W7).
T1 construct: host or cells: CHO cells
Put plainly: TRPM8 activation, FLIPR calcium assay in CHO cells. The series is classed as cell-based. On the procedure: The in vitro effects of test articles were first evaluated on cloned hTRPM8 channel. […] The test cells were Chinese Hamster Ovary (CHO) cells stably transfected with human TRPM8 cDNAs. […] Substances were evaluated at 8 concentrations (0.03 to 300 μM) with n=4 replicates per determination. For Fluorescence Imaging Plate Reader ([…]″) assay, cells were plated in 384-well black wall, flat clear-bottom microtiter plates (Type: BD Biocoat Poly-D-Lysine Multiwell Cell Culture Plate) at approximately 30,000 cells per well. Cells were incubated at 37° C. overnight to reach a near confluent monolayer appropriate for use in a fluorescence assay. The test procedure was to remove the growth media and to add 40 μL of HBPS containing Fluo-8 for 30 minutes at 37° C. 10 μL of test compound, vehicle, or control solutions in HBPS were then added to each well and read for 4 min using a Fluo-8 calcium kit and the […]″ instrument (Molecular Devices, Sunnyvale, California). […] J. Neurosci.
Concentration-response data were analysed via the FLIPR Control software that is supplied with the FLIPR System (MDS-AT) and fitted to a Hill equation of the following form: Response=Base+(Max−Base)/1+(xhalf/x)^rate, where: “Base” is the response at low concentrations of test compound; “Max” is the maximum response at high concentrations; “xhalf” is the EC50 (the concentration of test compound producing half-maximal activation); and “rate” is the Hill coefficient. Nonlinear least squares fits were made assuming a simple one-to-one binding model.

Another series relates to zygomatic/forehead skin. Briefly: Cooling sensation after application to zygomatic/forehead skin. The class given is in vivo, human. On the procedure:
When certain Dapa compounds are applied to the zygomatic and forehead skin, sensations of coolness/cold are felt and can be graded in intensity [Wei. 1-Di-isopropyl-phosphinoyl-alkanes as topical agents for the treatment of sensory discomfort. US 2015/0164924]. For example, one can rate the sensation as 0, 1, 2, or 3 with: 0 as no change; 1 as slight coolness, or cold; 2 as clear-cut signal of coolness or cold; and 3 as strong cooling or cold. The intervals for recording are 5 to 15 minutes, until at least two successive zeroes are obtained. The onset of drug action is taken as the time to reach 2 units of coolness intensity. The active compounds here, e.g, 1-7 produce cooling with 1 min after application. The duration of Dapa-compound action is defined as the offset time minus the onset time. The offset of drug action is defined here as the time when coolness intensity drops below 2, after previously surpassing 2 units.
Test compounds were applied to the skin of the forehead and zygomatic using cotton gauze (0.4 g, rectangular, 50 mm×60 mm; from CS-being, Daisan Cotton, Japan). The test compounds were used at a concentration of 20 mg/mL in distilled water. From the data shown above, it can be seen that, among these compounds, 1-7 and 1-8 evoked cool/cold on zygomatic/forehead skin.

Another series concerns human sebocytes. Put plainly: Inhibition of sebocyte function in cultured human sebocytes (assay not specified). The class given is cell-based. Conditions: 0.1mM. On the procedure:
as §1, §2

The subject of a further series is TRPM8 and actin. Briefly: Non-sebum cellular markers in sebocytes. The series is classed as cell-based, human. An excerpt: (§3) There are intracellular biochemical receptors and markers of sebocyte activation and sebum production. Peroxisome proliferator-activated receptors [PPAR] agonists increase sebum production in isolated sebocytes [Trivedi et al. (2006)]. This class of receptors is reduced after 1-8. Similarly, the […] which is linked to lipogenesis in sebocytes, was reduced by 1-8. These effects were specific to the markers of sebum production, as cellular receptors such as TRPM8 and actin were not affected by 1-8.

For series [5], the system named is sterol-response binding protein [SBEP-1]. Briefly: Marker of sebum production in sebocytes: SREBP-1. The class given is cell-based, human. On the procedure: as §1, §3
Series [6] has as its system Peroxisome proliferator-activated receptors [PPAR]. Put plainly: Marker of sebum production in sebocytes: PPAR. The class given is cell-based, human. On the procedure:
as §1, §3

T1 sequence (Q7Z2W7 whole entry): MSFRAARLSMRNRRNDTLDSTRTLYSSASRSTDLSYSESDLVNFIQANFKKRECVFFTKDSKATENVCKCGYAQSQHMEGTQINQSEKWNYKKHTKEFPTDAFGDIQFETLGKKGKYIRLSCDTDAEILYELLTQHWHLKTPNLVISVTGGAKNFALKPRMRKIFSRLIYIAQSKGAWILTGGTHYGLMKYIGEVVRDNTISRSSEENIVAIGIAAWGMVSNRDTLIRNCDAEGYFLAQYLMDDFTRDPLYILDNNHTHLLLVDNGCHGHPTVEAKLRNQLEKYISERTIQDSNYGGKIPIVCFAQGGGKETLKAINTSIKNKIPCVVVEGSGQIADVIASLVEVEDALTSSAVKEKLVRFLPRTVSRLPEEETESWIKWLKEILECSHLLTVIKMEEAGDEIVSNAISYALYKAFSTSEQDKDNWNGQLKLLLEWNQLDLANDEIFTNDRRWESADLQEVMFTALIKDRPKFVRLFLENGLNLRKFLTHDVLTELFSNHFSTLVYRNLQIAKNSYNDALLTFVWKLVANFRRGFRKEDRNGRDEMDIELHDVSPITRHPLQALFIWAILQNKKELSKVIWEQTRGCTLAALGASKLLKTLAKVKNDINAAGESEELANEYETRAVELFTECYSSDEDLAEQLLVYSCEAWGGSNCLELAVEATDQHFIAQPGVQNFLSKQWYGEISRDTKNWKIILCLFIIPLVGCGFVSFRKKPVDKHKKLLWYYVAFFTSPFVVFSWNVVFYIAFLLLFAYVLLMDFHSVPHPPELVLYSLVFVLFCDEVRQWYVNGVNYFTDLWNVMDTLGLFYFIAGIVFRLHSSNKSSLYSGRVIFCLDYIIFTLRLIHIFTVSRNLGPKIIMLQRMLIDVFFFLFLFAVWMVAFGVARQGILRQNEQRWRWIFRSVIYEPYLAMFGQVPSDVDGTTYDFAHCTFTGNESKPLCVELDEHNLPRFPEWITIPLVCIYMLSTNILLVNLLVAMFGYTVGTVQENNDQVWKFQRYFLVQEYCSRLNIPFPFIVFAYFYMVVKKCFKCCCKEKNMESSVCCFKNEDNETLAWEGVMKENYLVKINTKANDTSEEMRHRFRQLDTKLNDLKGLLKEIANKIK

For `CCCCCCCCCCCP(=O)(C(C)C)C(C)C` [Code 1-11, 1-diisopropylphosphorylundecane], in the series on sebocytes [1] (IGF-1 stimulated sebocytes), the “Levels / production of squalene (thin layer chromatography, FIG. 5)” value is “lowers”. Also, the “Activity relative to 1-8 in the MTT sebocyte assay” value in the series with sebocytes [2] (FIG. 4) was 10,000 x. Moreover, in the series with sebocytes [2] (at 0.10 μM), the “Sebocyte cell viability as % of controls (FIG. 4)” value is reported as “strongly inhibited”. Besides, the “Appearance after manual shaking (FIG. 7B)” value in series [3] is “foaming”. The compound further gave an activity at 10 µM in the series with sebocytes [4] of at least 88%. Further, at cloned hTRPM8 channel, the “Activity on TRPM8” value is “low potency”.

Consider `CCCCCCCCP(=O)(C(C)C)C(C)C` [Code 1-8, 1-diisopropylphosphoryloctane], for which the “IGF-1 induced increase of lipids in cells (Oil Red O photomicrograph)” value with sebocytes [1] (IGF-1 50 ng/mL, 0.1mM) is recorded as “inhibited”. Also, in the series on sebocytes [1] (IGF-1 stimulated sebocytes), the “Squalene and wax esters (thin-layer chromatography and gas-chromatography)” value is “selectively decreased”. Further, the “Sensory Quality” value in the series with zygomatic/forehead skin (20 mg/mL in distilled water) is “cold-icy”. The compound further gave a Duration in the series with zygomatic/forehead skin (20 mg/mL in distilled water, offset minus onset) of 4.0 h. For the same compound, the Onset in the series with zygomatic/forehead skin (20 mg/mL in distilled water, time to reach 2 units of coolness) was around 1 min. Besides, the “Duration of localized cooling and refreshing sensations” value in the series on zygomatic/forehead skin (forehead skin, 20 mg/mL, 0.08 to 0.15 mL) is “several hours”. For the same compound, the “Inhibition of sebocyte function” value in the series on human sebocytes was “potent inhibitor”. Moreover, in the series on sebocytes [2] (0.1mM), the “Photomicrographs of sebocyte cultures” value is given as “patchy empty spaces”. Besides, the “Sebocyte cell viability as % of controls (FIG. 3)” value with sebocytes [2] (concentrations in mM, 1-8 at 1 mM) is recorded as “strongly inhibited”. Also, in the series with sebocytes [4], the activity at 10 µM was at least 78%. For the same compound, the “Relative Potency to I-menthol” value at cloned hTRPM8 channel (TRPM8 EC50 relative to I-menthol) is given as 5.4. In addition, the “TRPM8 and actin levels” value with TRPM8 and actin was “not affected”. In addition, in series [5], the SBEP-1 level result is “reduced”. In series [6], the PPAR level result is recorded as “reduced”.
